SMILES strings stand for the structures.

This series is described as follows: Solubility of indacaterol maleate and glycopyrrolate. The class given is physicochemical. The method, then:
In a formulation it is necessary to be sure that the active pharmaceutical ingredients (API) are dissolved completely.
0.02% tween-80: […].
pH=3 0.02% tween-80: […], adjust pH to 3 with hydrochloric acid. Other solutions were similarly prepared. The percentages mentioned above are percentages by weight.

In the case of `CCc1cc2c(cc1CC)CC(NC[C@H](O)c1ccc(O)c3[nH]c(=O)ccc13)C2.O=C(O)/C=C\C(=O)O` [Indacaterol Maleate, (R)-5-[2-(5,6-Diethylindan-2-ylamino)-1-hydroxyethyl]-8-hydroxy-1H-quinolin-2-one maleate], the Solubility runs as follows: (0.02% tween-80) 29.52 mg/100 ml; (Purified water) 29.95 mg/100 ml; (pH = 3 0.02% tween-80) 32.17 mg/100 ml; (pH = 3 2.5% SBECD solution) 351.46 mg/100 ml; (pH = 3 5% SBECD solution) 539.5 mg/100 ml; (pH = 3 Purified water) 31.21 mg/100 ml. This compound also registered a Solubility (pH = 3.5 0.02% tween-80) of 30.8 mg/100 ml; a Solubility (pH = 3.5 Purified water) of 29.97 mg/100 ml; a Solubility (pH = 4 0.02% tween-80) of 30.91 mg/100 ml; a Solubility (pH = 4 0.5% SBECD solution) of 55.523 mg/100 ml; a Solubility (pH = 4 1% SBECD solution) of 161.866 mg/100 ml; a Solubility (pH = 4 2% SBECD solution) of 211.4 mg/100 ml. Besides, the Solubility reads like this: (pH = 4 5% SBECD solution) 316 mg/100 ml; (pH = 4 Purified water) 30.82 mg/100 ml; (pH = 4.5 0.02% tween-80) 30.41 mg/100 ml; (pH = 4.5 Purified water) 30.32 mg/100 ml; (pH = 5 0.02% tween-80) 30.84 mg/100 ml; (pH = 5 Purified water) 28.98 mg/100 ml. The “Solubility (in words)” value by setting is: (cyclodextrin added) “improved significantly”; (in purified water) “not sufficiently soluble”; (tween 80 added) “insufficient”.

The values are drawn from US20210386730A1 (priority 2020, published 2021).
